Read-outs that look alike come from different tables or passages of the source.

The record followed here is publication PMC7822874, “Chemoprotective antimalarials identified through quantitative high-throughput screening of Plasmodium blood and liver stage parasites” (Scientific Reports, 2021).

The test system of data set [1] is Plasmodium falciparum Dd2 asexual blood stage parasites. As to the kind of experiment: microbe, parasite or virus in culture. Set-up: species or system Plasmodium falciparum Dd2 in human erythrocytes; single determination (one 11-point concentration-response curve). To be noted: Plasmodium falciparum, DD2, Erythrocyte, 72 h; read-out: AC50.
A further data set can be described thus: in vitro. To be noted: human.
Data set [2] has as its system P. berghei-ANKA-GFP-LucCON liver stage parasites in HepG2-A16-CD81EGFP cells. As to the kind of experiment: P. berghei liver stage Pb-Luc assay, Method 1 (UCSD, 1536-well). To be noted: Plasmodium berghei, 48 h, average of 2 wells, 1536-well plate; for activity at 1 µM: nominal 1 uM (10 mM stock), […] for 15 mM, 1.2 uM for 12 mM, 2 uM for 20 mM stock; for activity at 3 µM: nominal 3 uM (10 mM stock), 4.5 uM for 15 mM, 3.6 uM for 12 mM, 6 uM for 20 mM stock. The format is cell-based, Plasmodium berghei.

Where [3] appears, read: HepG2-A16-CD81EGFP cells, uninfected.
The mark [4] stands for this setting: nominal 1 uM (10 mM stock), […] for 15 mM, 1.2 uM for 12 mM, 2 uM for 20 mM stock, average of 2 wells, repeat 2.
[5] abbreviates: nominal 3 uM (10 mM stock), 4.5 uM for 15 mM, 3.6 uM for 12 mM, 6 uM for 20 mM stock, average of 2 wells, repeat 2.
[6] abbreviates: repeat 1, read-out: Pb-Luc signal, 1 uM, repeat 1.
Setting [7] is: repeat 2, read-out: Pb-Luc signal, 1 uM, repeat 2.
Where [8] appears, read: repeat 3, read-out: Pb-Luc signal, 1 uM, repeat 3.
Setting [9] is: repeat 1, read-out: Pb-Luc signal, 3 uM, repeat 1.
Setting [10] is: repeat 2, read-out: Pb-Luc signal, 3 uM, repeat 2.
The mark [11] stands for this setting: repeat 3, read-out: Pb-Luc signal, 3 uM, repeat 3.

Take `CCc1cccc(-n2c(=O)c3cccnc3n2CC(=O)NCc2ccccc2)c1` [NCGC00128448-01]: the AC50 in data set [1] came out at 1680 nM. In addition, the viability at 48 h, 1 µM in “in vitro” (setting [3]) was 105%. In addition, the viability at 48 h, 3 µM in “in vitro” (setting [3]) worked out at 100%. The “HepG2 viability signal, 1 uM, repeat 2” value with HepG2-A16-CD81EGFP cells (setting [4]) stood at 105.26%. Also, the “HepG2 viability signal, 3 uM, repeat 2” value in the data set with HepG2-A16-CD81EGFP cells (setting [5]) is 100.08%. For the same molecule, the activity at 1 µM in data set [2] (setting [6]) was found to be 105%; in data set [2] (setting [7]) it was 86.8%; in data set [2] (setting [8]) it was 118%. Moreover, the activity at 3 µM in data set [2] (setting [9]) was found to be 150%; in data set [2] (setting [10]), 109%; in data set [2] (setting [11]), 92.9%.
In the case of `Cn1nc(C(=O)NCC(=O)N2CCCCCCNC(=O)CC2c2ccccc2)c2ccccc21` (stereo not shown) [NCGC00467428-01], the AC50 in data set [1] was determined as 2110 nM. Besides, in the data set “in vitro” (setting [3]), the viability at 48 h, 1 µM was 108%. The viability at 48 h, 3 µM in the data set “in vitro” (setting [3]) is 106%. Also, in the data set on HepG2-A16-CD81EGFP cells (setting [4]), the “HepG2 viability signal, 1 uM, repeat 2” value stood at 105.85%. Moreover, in the data set on HepG2-A16-CD81EGFP cells (setting [5]), the “HepG2 viability signal, 3 uM, repeat 2” value came to 101.81%. The activity at 1 µM in data set [2] (setting [6]) turned out to be 90.2%; in data set [2] (setting [7]) it was 74%; in data set [2] (setting [8]), 75.4%. The figures for the activity at 3 µM in data set [2] (setting [9]), in data set [2] (setting [10]) and in data set [2] (setting [11]) were 105%, 88.2% and 105%, respectively.
As to `CCOC(=O)c1ccc(NC2=CC(c3ccc(O)c(OCC)c3)N(c3ccc(C(=O)OCC)cc3)C2=O)cc1` (stereo not shown) [NCGC00102600-01], the AC50 in data set [1] was 3350 nM. In the data set “in vitro” (setting [3]), the viability at 48 h, 1 µM came out at 98.6%. The viability at 48 h, 3 µM in the data set “in vitro” (setting [3]) is 101%. Besides, the “HepG2 viability signal, 1 uM, repeat 2” value in the data set with HepG2-A16-CD81EGFP cells (setting [4]) was 100.94%. Moreover, the “HepG2 viability signal, 3 uM, repeat 2” value with HepG2-A16-CD81EGFP cells (setting [5]) is reported as 102.23%. Moreover, the activity at 1 µM in data set [2] (setting [6]) was found to be 107%; in data set [2] (setting [7]), 140%; in data set [2] (setting [8]) it was 101%. The activity at 3 µM in data set [2] (setting [9]) was found to be 117%; in data set [2] (setting [10]), 126%; in data set [2] (setting [11]), 113%.
Regarding `COc1ccccc1CN1COc2ccc3c(oc(=O)c4ccccc43)c2C1` [NCGC00116378-01], the AC50 in data set [1] worked out at 2110 nM. Besides, in “in vitro” (setting [3]), the viability at 48 h, 1 µM was 106%. Besides, the viability at 48 h, 3 µM in “in vitro” (setting [3]) was 108%. Moreover, in the data set on HepG2-A16-CD81EGFP cells (setting [4]), the “HepG2 viability signal, 1 uM, repeat 2” value is listed as 104.93%. In addition, the “HepG2 viability signal, 3 uM, repeat 2” value with HepG2-A16-CD81EGFP cells (setting [5]) is recorded as 105.29%. The activity at 1 µM in data set [2] (setting [6]) amounted to 85.6%; in data set [2] (setting [7]), 85.1%; in data set [2] (setting [8]) it was 110%. Moreover, the activity at 3 µM in data set [2] (setting [9]) turned out to be 73.3%; in data set [2] (setting [10]) it was 86.8%; in data set [2] (setting [11]) it was 88.1%.
`CCCOC(=O)c1c(NC(=O)C(C)Sc2nc(-c3ccccc3)cc(C(F)(F)F)n2)sc(C(=O)N(C)C)c1C` (stereo not shown) [NCGC00101274-01]: the AC50 in data set [1] is 1680 nM. The viability at 48 h, 1 µM in “in vitro” (setting [3]) came to 98.8%. Moreover, the viability at 48 h, 3 µM in “in vitro” (setting [3]) is 100%. The “HepG2 viability signal, 1 uM, repeat 2” value in the data set with HepG2-A16-CD81EGFP cells (setting [4]) is 104.19%. Besides, the “HepG2 viability signal, 3 uM, repeat 2” value in the data set with HepG2-A16-CD81EGFP cells (setting [5]) is recorded as 103.13%. Also, the values for the activity at 1 µM in data set [2] (setting [6]), in data set [2] (setting [7]) and in data set [2] (setting [8]) were 94.7%, 104% and 101%, respectively. Besides, the activity at 3 µM was found to be 61.7% in data set [2] (setting [9]), 98.3% in data set [2] (setting [10]) and 113% in data set [2] (setting [11]).
Consider `Cc1ccc(C)c(Cn2c(=O)n(CCCCC(=O)NCc3ccc4c(c3)OCO4)c(=O)c3ccccc32)c1` [NCGC00106276-01], for which the concentration at half-maximal activity (AC50) in data set [1] worked out at 6680 nM. Further, the viability at 48 h, 1 µM in “in vitro” (setting [3]) is 99.1%. Moreover, the viability at 48 h, 3 µM in “in vitro” (setting [3]) worked out at 93.3%. The “HepG2 viability signal, 1 uM, repeat 2” value in the data set with HepG2-A16-CD81EGFP cells (setting [4]) is listed as 102.61%. Besides, the “HepG2 viability signal, 3 uM, repeat 2” value with HepG2-A16-CD81EGFP cells (setting [5]) was found to be 103.78%. The results for the activity at 1 µM in data set [2] (setting [6]), in data set [2] (setting [7]) and in data set [2] (setting [8]) were 69%, 120% and 109%, respectively. Besides, the activity at 3 µM in data set [2] (setting [9]) was 132%; in data set [2] (setting [10]), 95.7%; in data set [2] (setting [11]), 87.2%.
As for `COc1ccc(-c2cc([C@H]3CN4CC[C@H]3C[C@@H]4CN[S+](=O)([O-])c3ccc(Cl)cc3)n(C)n2)cc1OC` [NCGC00399828-01], the AC50 in data set [1] was found to be 2990 nM. Besides, the viability at 48 h, 1 µM in “in vitro” stood at 98.9%. Moreover, the viability at 48 h, 3 µM in “in vitro” came out at 99.9%. The “HepG2 viability signal, 1 uM, repeat 2” value in the data set on HepG2-A16-CD81EGFP cells (human, 48 h, 1 µM) was determined as 102.24%. Moreover, the “HepG2 viability signal, 3 uM, repeat 2” value in the data set on HepG2-A16-CD81EGFP cells (human, 48 h, 3 µM) is on record as 102.23%. Besides, the activity at 1 µM came out at 68.5% in data set [2] (setting [6]), 88.1% in data set [2] (setting [7]) and 52.2% in data set [2] (setting [8]). Also, the activity at 3 µM in data set [2] (setting [9]) was 40.7%; in data set [2] (setting [10]), 77%; in data set [2] (setting [11]) it was 89.6%.
Consider `CCN1CCN(c2cc(C)c3cc(NC(=O)c4cc(OC)c(OC)c(OC)c4)ccc3n2)CC1` [NCGC00137500-01], for which, in data set [1], the AC50 was 1330 nM. For the same molecule, the viability at 48 h, 1 µM in “in vitro” (setting [3]) turned out to be 100%. Further, the viability at 48 h, 3 µM in “in vitro” (setting [3]) turned out to be 103%. The “HepG2 viability signal, 1 uM, repeat 2” value in the data set with HepG2-A16-CD81EGFP cells (setting [4]) stood at 103.37%. Further, the “HepG2 viability signal, 3 uM, repeat 2” value in the data set with HepG2-A16-CD81EGFP cells (setting [5]) was found to be 106.17%. Moreover, the activity at 1 µM stood at 125% in data set [2] (setting [6]), 156% in data set [2] (setting [7]) and 138% in data set [2] (setting [8]). The activity at 3 µM in data set [2] (setting [9]) is 126%; in data set [2] (setting [10]), 103%; in data set [2] (setting [11]) it was 114%.
For `CCOC(=O)C1(Cc2ccccc2Cl)CCNCC1` [NCGC00430911-01], the AC50 in data set [1] is 2660 nM. For the same molecule, in the data set “in vitro” (setting [3]), the viability at 48 h, 1 µM turned out to be 94.6%. Also, the viability at 48 h, 3 µM in the data set “in vitro” (setting [3]) worked out at 94.7%. In addition, the “HepG2 viability signal, 1 uM, repeat 2” value in the data set with HepG2-A16-CD81EGFP cells (setting [4]) is recorded as 100.98%. For the same molecule, the “HepG2 viability signal, 3 uM, repeat 2” value in the data set with HepG2-A16-CD81EGFP cells (setting [5]) is listed as 101.65%. The activity at 1 µM in data set [2] (setting [6]) was 78.1%; in data set [2] (setting [7]) it was 97.3%; in data set [2] (setting [8]), 89.2%. In addition, the activity at 3 µM turned out to be 74.5% in data set [2] (setting [9]), 106% in data set [2] (setting [10]) and 93.5% in data set [2] (setting [11]).
For the molecule `CC1=C[C@@H](CN(C)C)[C@H](C(C)C)C[C@H]1Cc1nc2ncc(Cl)cc2[nH]1` [NCGC00421128-01], the half-maximal activity concentration (AC50) in data set [1] amounted to 21700 nM. Also, the viability at 48 h, 1 µM in “in vitro” (setting [3]) was determined as 106%. In addition, the viability at 48 h, 3 µM in “in vitro” (setting [3]) came out at 108%. In the data set on HepG2-A16-CD81EGFP cells (setting [4]), the “HepG2 viability signal, 1 uM, repeat 2” value came to 100.56%. The “HepG2 viability signal, 3 uM, repeat 2” value in the data set with HepG2-A16-CD81EGFP cells (setting [5]) is listed as 100.80%. Also, the activity at 1 µM in data set [2] (setting [6]) stood at 85.6%; in data set [2] (setting [7]) it was 76%; in data set [2] (setting [8]), 112%. For the same molecule, the figures for the activity at 3 µM in data set [2] (setting [9]), in data set [2] (setting [10]) and in data set [2] (setting [11]) were 59.7%, 57.2% and 82.1%, respectively.
For the molecule `O=C(Nc1ccc2c(N3CCOCC3)ncnc2c1)c1ccc(Br)o1` [NCGC00425547-01], the AC50 in data set [1] worked out at 2660 nM. For the same molecule, the viability at 48 h, 1 µM in the data set “in vitro” (setting [3]) was 110%. Also, the viability at 48 h, 3 µM in “in vitro” (setting [3]) came to 106%. For the same molecule, the “HepG2 viability signal, 1 uM, repeat 2” value with HepG2-A16-CD81EGFP cells (setting [4]) is 103.01%. Also, in the data set on HepG2-A16-CD81EGFP cells (setting [5]), the “HepG2 viability signal, 3 uM, repeat 2” value turned out to be 102.12%. The activity at 1 µM came to 126% in data set [2] (setting [6]), 99.1% in data set [2] (setting [7]) and 129% in data set [2] (setting [8]). Moreover, the activity at 3 µM in data set [2] (setting [9]) stood at 123%; in data set [2] (setting [10]) it was 89.4%; in data set [2] (setting [11]), 131%.

As a reminder, the AC50 is the concentration giving half of the maximal activity seen. The viability is a read-out of living cells in per cent, often relative to untreated cells.
